Results as given in patent US7087661B1, “Safe and effective biofilm inhibitory compounds and health-related uses thereof” (Cernofina, LLC, priority 1998, dated 2006).
“And” between values parts separate entries of the source, which are not always exact repeats. Equal entries are not always repeated. Structures can show the parent of a compound that is named as a salt.

Assays:
[1] = tested on: polyclonal antibodies specific for zosteric acid; experiment: Preliminary testing of anti-zosteric acid polyclonal antibodies for cross reactivity; assay type: binding
Text: To investigate the mechanism behind the AF activity of sulfate esters, polyclonal antibodies specific for the sulfate ester zosteric acid were generated (BAbCo, Berkeley, Calif.). […] These antibodies were then used to investigate whether the sulfate ester AF agent zosteric acid directly binds fouling organisms.

[2] = tested on: sea urchin egg fertilization (sperm-egg fusion); experiment: Sea urchin fertilization assays; assay type: cell-based
Protocol: A simple sea urchin assay was used to detect and quantitate the ability of sulfate esters to block sperm-egg fusion. Sea urchin sperm was added to freshly collected eggs in the presence and absence of increasing amounts of the sulfate ester zosteric acid, and the eggs were subsequently scored for successful fertilization. Fertilization assays. Healthy sea urchins were induced to spawn by injection with 0.5 M KCL solution. Freshly collected eggs were gently washed and resuspended in filtered sea water (FSW, pH 8.2) and aliquotted into separate tubes for fertilization assays. Zosteric acid was added to each tube from a concentrated stock dissolved in FSW (pH 8.2), along with additional FSW to ensure a constant volume in each tube. Equal amounts of sperm were added to each tube and percent fertilization was determined by direct microscopic counting. Eggs with elevated fertilization membranes were scored as fertilized. Assays were performed at sperm-limiting concentrations that allowed 95–99% fertilization in the absence of zosteric acid.

equine erythrocytes = experiment: Red blood cell agglutination assays; assay type: cell-based; conditions: for concentrations producing erythrocyte agglutination: washed equine erythrocytes, 0.005 to 5.0 mg/mL tested
Protocol: Red Blood Cell agglutination assays. Washed equine erythrocytes suspended in 1 mg/mL sodium citrate were placed in microtiter plates designed with wells containing hemispherical bottoms. Negative controls (no zosteric acid) were diluted in isotonic saline solution. Zosteric acid treated cells were diluted with saline containing zosteric acid at eight concentrations ranging from 0.005 to 5.0 mg/mL. Positive controls were exposed to the same range of high molecular weight heparin sulfate concentrations.

Oceanosprillum = Oceanosprillum adhesion test on glass slides; assay type: cell-based; conditions: 5 mM in artificial seawater, 6-hour period
Protocol: Oceanosprillum adhesion test Each test consisted of a control set (with no sulfate esters) and sample sets containing the test molecules. The first test group consisted of a control sample set, a zosteric acid (5 mM) sample set, and an octyl sulfate (5 mM) sample set. The second test group consisted of a control sample set, a zosteric acid (5 mM) sample set, and a methyl sulfate (5 mM) sample set. Sample sets consisted of five 50 mL sterile centrifuge tubes, with each tube containing a glass microscope slide, 50 ml of artificial seawater (ASTM—American Society for testing and materials) with the dissolved sulfate ester, inoculated with an Oceanosprillum culture at 1×10^6 cells/mL. Sample sets were incubated at 23 C, with shaking so that the surface of the slides were horizontal. Over a 6-hour period, individual tubes were taken from the sample sets and tested for microbial adhesion.
(§1) Determination of bacterial adhesion. Samples were removed from the shaker and 1 mL of 50× acridine orange stain (0.5 g/L acridine powder in water) was added to the tube. The stain was allowed to react for 4 minutes. The slides were then removed and fitted with a long cover slip and immediately counted with an epifluorescent microscope fitted with a 100× (oil) objective lens on the under side of the slide. The size of the counting field was 10×10 μm. A total of 20 counts per slide were performed and averaged to yield the number of cells per μm^2, which was in turn converted to cells per mm^2. Error was assigned at 10% which is the standard accepted error for direct counting of bacterial cells.

[3] = tested on: agglutination of sea urchin eggs by purified bindin; experiment: Sea urchin egg agglutination assays with purified bindin; assay type: cell-based
Protocol: Sea urchin egg agglutination assays. Freshly spawned eggs were suspended in acidic seawater (pH 5) for 5 minutes to remove the outer jelly coat, and then washed 5 times in normal FSW (pH 8.2). Eggs were then transferred into plastic petri dished containing a range of zosteric acid concentrations and incubated for 15 minutes. Purified bindin (D. Epel, Stanford University) was added to the eggs at concentrations ranging from 1.2 to 12 μg/mL. The mixtures were gently agitated on a rotary shaker for 5 minutes and visually examined for agglutination. Bovine serum albumen (BSA) was used in separate assays to control for nonspecific agglutination of the dejellied eggs.

[4] = tested on: clot formation (prothrombin clotting time); experiment: Prothrombin clotting time assays; assay type: biochemical; conditions: human serum
Protocol: Clotting assays. Clotting time assays were performed using commercial kits (Sigma Chemical Co.) for prothrombin clotting time. Serum was harvested from 30 mL of whole human blood obtained by venous puncture using centrifugation to remove blood cells. Zosteric acid and high MW heparin were added to separate aliquots of the serum, producing concentrations from 0 to 5.0 mg/mL. Clotting times were determined for each concentration in duplicate according to the protocols provided with the kit.

[5] = tested on: Shewanella putrefaciens cell surface; experiment: Cell surface binding assay (immuno-gold staining, electron microscopy); conditions: cultures grown with 16 mM zosteric acid
Protocol: The marine bacterium Shewanella putrefaciens were grown in cultures containing zosteric acid and were subsequently examined for bound zosteric acid using immuno-gold staining with the antibody described above.
Cell Surface Binding Assays. The marine bacterium Shewanella putrefaciens was grown in marine broth in the presence of 16 mM zosteric acid. Dense log phase cells were harvest after 5 hours growth, and preserved in 0.5× Kamofsky's fixative (2% formaldehyde, 2.5% gluturaldehyde, 0.05 M sodium cacodylate, 0.25 M sucrose, pH 7.4) for 2 hours, and then transferred to a cacodylate buffer (0.05 M sodium cacodylate, pH 7.4) for storage. Cells were prepared for electron microscopic examination using immuno-gold staining techniques (Harlow, E. and Laine, D., Antibodies, A Laboratory Manual, Cold Spring Harbor Laboratory, 359–421; Roth et al., J. Histochem. Cytochem. 26: 1074–1081 (1978)). The primary antibody used in this study was an anti-zosteric acid polyclonal antibody (BAbCo, Richmond, Calif.).

Shewanella putrefaciens = experiment: Bacterial agglutination assays (growth and agglutination in liquid culture); assay type: cell-based
Protocol: To further investigate the role of sulfate esters in agglutination, the ability of sulfate esters to facilitate the agglutination of bacterial cells was investigated. Log-phase cultures grown in the presence of zosteric acid were monitored spectrophotometrically (OD600) for growth, and for agglutination in the presence of increasing amounts of zosteric acid. Bacterial agglutination assays. Log-phase cultures of Shewanella putrefaciens were grown in complete seawater medium containing zosteric acid at a range of concentrations up to 20 mM. Cultures were counted for viable colony forming units at eight hours.

Alteromonas atlantica = Alteromonas atlantica adhesion tests on glass slides; assay type: cell-based; conditions: for Alteromonas atlantica adhesion relative to controls: 5 mM dissolved in modified ASTM seawater
Protocol: Alteromonas atlantica adhesion tests. The tests consisted of a control sample set, a zosteric acid (5 mM) sample set, an octyl sulfate (5 mM) sample set, and a methyl sulfate (5 mM) set. A sample set consisted of six 60 mL sterile centrifuge tubes. Each tube contained a glass microscope slide and 50 mL of modified ASTM seawater (American Society for Testing and Materials (1986) D1141-86, ASTM, Philadelphia, Pa.) with dissolved agent, inoculated with Alteromonas atlantica culture to an initial cell density of 1×10^6 cells/mL. The modified seawater consisted of normal ASTM seawater ingredients, however the carbon source glycerol, was only 1000th the normal strength, […], and was void of an amino acid source (casamino acids), in order to allow enough carbon for attachment, but not for significant cell growth.
as §1

Aureobasidium pullulans = experiment: Fungal attachment and growth assay on glass slides; assay type: cell-based, Aureobasidium pullulans (ATCC 34261)
Protocol: Aureobasidium pullulans (ATCC 34261) was grown on potato-dextrose agar and harvested according to ASTM G-21-90 protocols (American Society for Testing and Materials (1986) […]-86, ASTM, Philadelphia, Pa.). The resulting spore suspension was used to inoculate liquid culture tubes containing 35 mL of growth medium (nutrient salts with 5 mM sucrose) and 15 mM zosteric acid. Zosteric acid-free medium was prepared as a control. A sterile microscope slide was added to each tube, the tubes were sealed and placed on a rotary shaker table at room temperature. One tube was harvested each day by removing the slide and counting the number of attached spores by direct microscopic counts, as described above.

[6] = tested on: natural marine algal biofilms; experiment: Marine algal biofilm development on RTV-11 silicone coating in running raw seawater; assay type: cell-based, marine algae; conditions: 25% (wt/wt) in RTV-11 silicone coated on glass slides; 26 days in running seawater
Text: A 30% (w/v) solution of octyl sulfate in water (Stepan Chemical Co.) was evaporated to dryness under a stream of room temperature air, to recover pure octyl sulfate (FIG. 1). The dry octyl sulfate was incorporated into RTV-11 silicone polymer at a loading of 25% (wt/wt) (RTV-11 silicone, catalyst and primer obtained from General Electric). The mixture was applied to three glass slides previously primed with silicone primer, and allowed to cure to dryness. Three primed glass slides coated with pure RTV-11 served as agent-free controls. After complete drying, the absorption properties of each slide were measured using a Shimadzu UV-2101 spectrophotometer fitted with an integrating sphere. Slides were then placed in a tank of running raw seawater and allowed to incubate outdoors in natural sunlight for 26 days. Water temperature was nominally 15 C. Spectrophotometric determination of biofilm accumulation was measured on each slide periodically. Relative algal biomass was calculated as the ratio of absorption at 680 nm, contributed by chlorophyll a, to that at 750 nm, a wavelength not absorbed by chlorophyll, to correct for differences in turbidity and scattering properties of the different slides.

COc1cc(/C=C/C(=O)O)ccc1O [ferulic acid]
cross reactivity with antibodies specific for zosteric acid [1]: no cross reactivity

O=C(O)/C=C/c1ccc(OS(=O)(=O)O)cc1 [zosteric acid]
concentration range effective in blocking sea urchin fertilization [2]: 1 to 10 mM | fertilization remaining ([2]; 1 mg/mL): 21% | effectiveness at inhibiting fertilization relative to heparin ([2]; equal mass concentrations, 1 mg/mL): at least twice as effective | concentrations that completely blocked fertilization ([2]; sea urchin eggs, sperm-limiting concentrations): higher than 0.5 mg/mL and > 1.5 mM | effect on sperm viability or motility ([2]; sea urchin sperm exposed to zosteric acid): no detected effect | reversibility of fertilization inhibition ([2]; unfertilized eggs of highest treatment washed and re-exposed to fresh sperm): reversible | reactivity with cell surface glycoproteins and polysaccharides relative to high molecular weight heparin (equine erythrocytes; from erythrocyte agglutination concentrations): eight times more reactive | concentrations producing erythrocyte agglutination (equine erythrocytes): ≥ 0.175 mg/mL | Oceanosprillum adhesion (bacterial attachment) relative to control (Oceanosprillum): roughly a two fold reduction | Agglutination ([3]; [ZA] 0.015 mg mL^−1): Yes | Agglutination ([3]; [ZA] 0.03 mg mL^−1): Yes | Agglutination ([3]; [ZA] 0.075 mg mL^−1): Yes | Agglutination ([3]; [ZA] 0.15 mg mL^−1): Yes | Agglutination ([3]; [ZA] 0.30 mg mL^−1): Yes | Agglutination ([3]; [ZA] 0.75 mg mL^−1): Yes | Agglutination ([3]; [ZA] 1.5 mg mL^−1): No | Agglutination ([3]; [ZA] 3 mg mL^−1): No | concentrations effective at preventing clot formation [4]: exceeding 10 mg/ml | zosteric acid bound to bacterial cell surface (immuno-gold staining) [5]: bound to the surface of the bacteria | counts of viable colony forming units (Shewanella putrefaciens; at eight hours, among the different cultures): no difference in cell density | agglutination of S. putrefaciens (Shewanella putrefaciens; concentration dependent, up to 20 mM): significant agglutination | growth of S. putrefaciens in liquid culture (Shewanella putrefaciens; concentrations up to 16 mM): did not inhibit the growth | Alteromonas atlantica adhesion relative to controls (Alteromonas atlantica): significant reduction | filamentous growth or mycelial development of colonies (Aureobasidium pullulans; 15 mM in liquid culture): no evidence of filamentous growth or mycelial development | germinated fungal colonies on slides (Aureobasidium pullulans; 15 mM, after 5 days incubation, control more than 600): less than 20 germinated fungal colonies/mm^2 | growth of fungal spores in the medium (Aureobasidium pullulans; 15 mM, clouding of tubes after Day 1): observed to grow

CCCCCCCCOS(=O)(=O)[O-].[Na+] [octyl sulfate]
Oceanosprillum adhesion (bacterial attachment) relative to control (Oceanosprillum): to an even greater extent than zosteric acid | algal biofilm development relative to controls lacking octyl sulfate [6]: five fold less | Alteromonas atlantica adhesion relative to controls (Alteromonas atlantica): slightly higher inhibitory activity than zosteric acid

COS(=O)(=O)O [methyl sulfate]
Oceanosprillum adhesion (bacterial attachment) relative to control (Oceanosprillum): roughly a two fold reduction | Alteromonas atlantica adhesion (Alteromonas atlantica; 5 mM, constant after 120 minutes, controls greater than 700,000): 150,000 cells/mm^2

heparin [reference compound]
reduction of fertilization ([2]; 1 mg/mL): approximately 50% | concentrations producing erythrocyte agglutination (equine erythrocytes): greater than 0.75 mg/mL | concentrations effective at preventing clot formation [4]: below 0.1 mg/ml

O=C(O)C=Cc1ccccc1 [cinnamic acid]
cross reactivity with antibodies specific for zosteric acid [1]: no cross reactivity

CCC(C)(C)c1ccc(OS(=O)(=O)Cl)cc1 [4-PPCS, 4 t-Pentyl Phenyl Chlorosulfate]
impact on sperm motility ([2]; contact with 4-PPCS): no adverse impacts | inhibition when more sperm were added to the medium ([2]; exceeding the binding capacity of 4-PPCS in solution): could be washed out | effectiveness in blocking sea urchin fertilization ([2]; in the range of 1–10 mM): ~100%

O=C(O)/C=C/c1ccc(O)cc1 [coumaric acid, reference compound]
effect on egg fertilization ([2]; 1 mg/mL): no effect
